Test system: colon cancer cell line HCT116
Test: Proliferation rate of HCT116 in culture with drug
Type: cell-based, human
Details: cultured for 2 days
Procedure: The human-derived cancer cells used were a colon cancer cell line HCT116, a melanoma cell line A375 (used only in the tunicamycin combination test group), a lung cancer cell line A549 (used only in the tunicamycin combination test group), and a prostate cancer cell line DU145 (used only in the tunicamycin combination test group). On a 6-well plate, the human-derived cancer cells were cultured for 1 day in the presence of tunicamycin for the tunicamycin combination test group, and cultured for 2 days in the presence of the relevant drug used in combination for the fluorouracil combination test group and the irinotecan combination test group. The concentration of the drug used in combination was set to a concentration that decreased the proliferation rate of the cancer cells by about half at the completion of culture. […] As a control, a test group without a drug used in combination was established. In the control group, only DMSO (dimethyl sulfoxide), a solvent for the drug used in combination, was added to the cancer cells at a final concentration of 0.1% (v/v), and then the cancer cells were cultured for 2 days.

Q: Which “concentration that decreased the proliferation rate of the cancer cells by about half at the completion of culture” value does the source give for `O=c1[nH]cc(F)c(=O)[nH]1` [fluorouracil] here?
A: Its value is 0.4 µg/mL.
